Data on eight compounds can be found in ChEMBL document CHEMBL3045918, “Synthesis, crystal structure, and insecticidal activities of highly congested hexahydroimidazo[1,2-a]pyridine derivatives: effect of conformation on activities” (2010).

Assay type in all cases: functional
Experiment [1] concerns Mythimna separata. As to the kind of experiment: Insecticidal activity against second-instar larvae Mythimna separata (Oriental armyworm) in compound treated corn leaves assessed as mortality at 500 mg/L measured after 48 hr.
Experiment [2] relates to Aphis craccivora. As to the kind of experiment: Insecticidal activity against Aphis craccivora (cowpea aphid) in compound treated horsebean plant leaves assessed as mortality at 500 mg/L measured after 24 hr by leaf-dip method.
The test system of experiment [3] is Aphis craccivora. As to the kind of experiment: Insecticidal activity against Aphis craccivora (cowpea aphid) in compound treated horsebean plant leaves assessed as mortality measured after 24 hr by leaf-dip method.
Experiment [4] relates to Mythimna separata. As to the kind of experiment: Insecticidal activity against second-instar larvae Mythimna separata (Oriental armyworm) in compound treated corn leaves assessed as mortality measured after 48 hr.
Experiment [5] has as its system Nilaparvata lugens. Nature of the experiment: Insecticidal activity against compound resistant second-instar larvae Nilaparvata lugens (brown planthopper) in compound rice seedlings assessed as toxicity at 25 degC measured after 6 days relative to control.
Experiment [6] relates to Nilaparvata lugens. Nature of the experiment: Insecticidal activity against compound sensitive second-instar larvae Nilaparvata lugens (brown planthopper) in compound rice seedlings assessed as toxicity at 25 degC measured after 6 days relative to control.
The subject of experiment [7] is Nilaparvata lugens. Nature of the experiment: Insecticidal activity against compound resistant second-instar larvae Nilaparvata lugens (brown planthopper) in compound rice seedlings assessed as mortality at 25 degC measured after 6 days. The following applies: 144 h.
The subject of experiment [8] is Nilaparvata lugens. Nature of the experiment: Insecticidal activity against compound sensitive second-instar larvae Nilaparvata lugens (brown planthopper) in compound rice seedlings assessed as mortality at 25 degC measured after 6 days. As to conditions: 144 h.

A word on the mortality: it is the percentage killed. Take `O=[N+]([O-])C1=C2N(Cc3ccc(Cl)nc3)CCN2[C@H](c2ccco2)[C@@](C2=NCCN2Cc2ccc(Cl)nc2)([N+](=O)[O-])[C@H]1c1ccco1`: the mortality at 500 µg/mL in experiment [1] was 0%; in experiment [2], 87%.

What is called LC50 is the concentration that kills 50% of the test population. For `Cc1ccc([C@@H]2C([N+](=O)[O-])=C3N(Cc4ccc(Cl)nc4)CCN3[C@H](c3ccc(C)o3)[C@@]2(C2=NCCN2Cc2ccc(Cl)nc2)[N+](=O)[O-])o1`, the mortality at 500 µg/mL in experiment [1] and in experiment [2] was 100% in each case. Further, the LC50 was determined as 1.31 µM in experiment [3] and 43 µM in experiment [4].

With `O=[N+]([O-])C1=C2N(Cc3ccc(Cl)nc3)CCN2[C@H](c2ccco2)[C@@](C2=NCCN2Cc2ccc(Cl)nc2)([N+](=O)[O-])[C@@H]1c1ccco1`, the mortality at 500 µg/mL in experiment [1] and in experiment [2] was 100% each time. In addition, the LC50 in experiment [3] is 4.43 µM; in experiment [7], 3.76 µM; in experiment [8], 1.07 µM; in experiment [4] it was 26.5 µM. Also, the Ratio in experiment [5] was 10.32; in experiment [6] it was 1.62.

With `Cc1ccc([C@@H]2C([N+](=O)[O-])=C3N(Cc4ccc(Cl)nc4)CCN3[C@H](c3ccc(C)s3)[C@@]2(C2=NCCN2Cc2ccc(Cl)nc2)[N+](=O)[O-])s1`, the mortality at 500 µg/mL in experiment [1] and in experiment [2] was 100% in each case. Besides, the LC50 stood at 3.79 µM in experiment [3] and 27.9 µM in experiment [4].

Turning to `O=[N+]([O-])C1=C2N(Cc3ccc(Cl)nc3)CCN2[C@H](c2cccs2)[C@@](C2=NCCN2Cc2ccc(Cl)nc2)([N+](=O)[O-])[C@@H]1c1cccs1`, the mortality at 500 µg/mL in experiment [1] and in experiment [2] was 100% each time. The LC50 in experiment [3] is 46.8 µM; in experiment [4], 44.1 µM.

For the compound `Cc1ccc([C@H]2C([N+](=O)[O-])=C3N(Cc4ccc(Cl)nc4)CCN3[C@H](c3ccc(C)s3)[C@@]2(C2=NCCN2Cc2ccc(Cl)nc2)[N+](=O)[O-])s1`, the mortality at 500 µg/mL is 0% in experiment [1] and 100% in experiment [2].

On to `O=[N+]([O-])/N=C1\NCCN1Cc1ccc(Cl)nc1` [IMIDACLOPRID], for which the mortality at 500 µg/mL in experiment [1] and in experiment [2] was 100% throughout. The LC50 amounted to 35 µM in experiment [3], 38.8 µM in experiment [7], 1.73 µM in experiment [8] and 125 µM in experiment [4]. In addition, the Ratio in experiment [5] and in experiment [6] was 1 in each case.

Turning to `O=[N+]([O-])C1=C2N(Cc3ccc(Cl)nc3)CCN2[C@H](c2cccs2)[C@@](C2=NCCN2Cc2ccc(Cl)nc2)([N+](=O)[O-])[C@H]1c1cccs1`, the mortality at 500 µg/mL is 0% in experiment [1] and 85.6% in experiment [2].
